From ChEMBL document CHEMBL1201862, “PubChem BioAssay data set” (2004)
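Where inhibition never reached the appropriate level, the endpoint shown equals the highest concentration tested. Otherwise, values were interpolated linearly from a five-concentration, 48-hour dose response in 96-well plates. GI50 marks 50% less growth.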 Calls of active or inactive are those of the source. Rule as the data show it: active = GI50 up to about 1.1 µM and inactive = higher. Where a SMILES comes first, the peptide text is derived from it. [ ]: non-standard residue; d: D form. The star is where a group is joined. Cbz = O=C(OCc1ccccc1)*; Aib = CC(C)(N)C(=O)O

Tests used:
Assay in all cases: growth of human tumour cells (NCI), 48 h
NCI-H522 = system: NCI-H522
SF-268 = system: SF-268
DMS-114 = system: DMS-114
SNB-75 = system: SNB-75
LOX IMVI = system: LOX IMVI
HCT-15 = system: HCT-15
UO-31 = system: UO-31
SF-539 = system: SF-539
OVCAR-8 = system: OVCAR-8
SK-MEL-28 = system: SK-MEL-28
MOLT-4 = system: MOLT-4
M14 = system: M14
ACHN = system: ACHN
UACC-62 = system: UACC-62
SN12C = system: SN12C
DU-145 = system: DU-145
MDA-MB-435 = system: MDA-MB-435
NCI-H226 = system: NCI-H226
Hs-578T = system: Hs-578T
PC-3 = system: PC-3

| SMILES | GI50 (NCI-H522) | GI50 (SF-268) | GI50 (DMS-114) | GI50 (SNB-75) | GI50 (LOX IMVI) | GI50 (HCT-15) | GI50 (UO-31) | GI50 (SF-539) | GI50 (OVCAR-8) | GI50 (SK-MEL-28) | GI50 (MOLT-4) | GI50 (M14) | GI50 (ACHN) | GI50 (UACC-62) | GI50 (SN12C) | GI50 (DU-145) | GI50 (MDA-MB-435) | GI50 (NCI-H226) | GI50 (Hs-578T) | GI50 (PC-3) |
| --- | --- | --- | --- | --- | --- | --- | --- | --- | --- | --- | --- | --- | --- | --- | --- | --- | --- | --- | --- | --- |
| CC(Cn1c2c3ccccc3ccc2c2oc(=O)c3ccccc3c21)N(C)C (configuration not stated) | > 100 µM (inactive) | > 100 µM (inactive) | > 100 µM (inactive) | > 100 µM (inactive) | > 100 µM (inactive) | > 100 µM | > 100 µM (inactive) | > 100 µM (inactive) | > 100 µM (inactive) | > 100 µM (inactive) | > 100 µM (inactive) | > 100 µM (inactive) | > 100 µM (inactive) | > 100 µM (inactive) | – | – | – | – | – | – |
| COc1ccc(/C=C2\CCCCC2=O)cc1 | – | > 100 µM (inactive) | > 100 µM (inactive) | 41.8 µM (inactive) | > 100 µM (inactive) | > 100 µM | > 100 µM (inactive) | > 100 µM (inactive) | > 100 µM (inactive) | > 100 µM (inactive) | > 100 µM (inactive) | > 100 µM (inactive) | > 100 µM (inactive) | > 100 µM (inactive) | > 100 µM (inactive) | – | – | – | – | – |
| O=C(O)C#CCO | > 100 µM (inactive) | > 100 µM (inactive) | > 100 µM (inactive) | > 100 µM (inactive) | > 100 µM (inactive) | > 100 µM | > 100 µM (inactive) | > 100 µM (inactive) | > 100 µM (inactive) | > 100 µM (inactive) | > 100 µM (inactive) | > 100 µM (inactive) | > 100 µM (inactive) | > 100 µM (inactive) | > 100 µM (inactive) | – | – | – | – | – |
| CCOC(=O)/C1=C(\C)N(Cc2ccccc2)C(=O)c2ccccc2C(=O)c2c(O)ccc(O)c21 | 24.1 µM (inactive) | > 100 µM (inactive) | – | > 100 µM (inactive) | > 100 µM (inactive) | > 100 µM | > 100 µM (inactive) | > 100 µM (inactive) | > 100 µM (inactive) | > 100 µM (inactive) | > 100 µM (inactive) | > 100 µM (inactive) | > 100 µM (inactive) | > 100 µM (inactive) | > 100 µM (inactive) | > 100 µM (inactive) | > 100 µM (inactive) | > 100 µM (inactive) | > 100 µM (inactive) | > 100 µM (inactive) |
| COc1cc2c(cc1OC)C13CCN4C=C5CCOC6CC(=O)N2C1C6C5CC43 (configuration not stated) | > 100 µM (inactive) | > 100 µM (inactive) | – | > 100 µM (inactive) | > 100 µM (inactive) | > 100 µM | > 100 µM (inactive) | > 100 µM (inactive) | > 100 µM (inactive) | > 100 µM (inactive) | > 100 µM (inactive) | > 100 µM (inactive) | > 100 µM (inactive) | > 100 µM (inactive) | > 100 µM (inactive) | > 100 µM (inactive) | > 100 µM (inactive) | > 100 µM (inactive) | > 100 µM (inactive) | > 100 µM (inactive) |
| CC(C)(NC(=O)C(C)(C)NC(=O)OCc1ccccc1)C(=O)O (Cbz-[Aib]-[Aib]-OH) | > 100 µM (inactive) | > 100 µM (inactive) | – | > 100 µM (inactive) | > 100 µM (inactive) | > 100 µM | > 100 µM (inactive) | > 100 µM (inactive) | > 100 µM (inactive) | > 100 µM (inactive) | > 100 µM (inactive) | > 100 µM (inactive) | > 100 µM (inactive) | > 100 µM (inactive) | > 100 µM (inactive) | > 100 µM (inactive) | > 100 µM (inactive) | > 100 µM (inactive) | > 100 µM (inactive) | > 100 µM (inactive) |
| CCSc1nn(-c2c3ccccc3nc3ccccc23)c(=S)s1 | > 100 µM (inactive) | > 100 µM (inactive) | – | 61.9 µM (inactive) | > 100 µM (inactive) | > 100 µM | > 100 µM (inactive) | > 100 µM (inactive) | > 100 µM (inactive) | > 100 µM (inactive) | > 100 µM (inactive) | > 100 µM (inactive) | > 100 µM (inactive) | > 100 µM (inactive) | > 100 µM (inactive) | > 100 µM (inactive) | > 100 µM (inactive) | > 100 µM (inactive) | > 100 µM (inactive) | > 100 µM (inactive) |
| CN(C)/C=N/Cc1ccc2c(c1)OCO2 | > 100 µM (inactive) | > 100 µM (inactive) | – | > 100 µM (inactive) | > 100 µM (inactive) | > 100 µM | > 100 µM (inactive) | > 100 µM (inactive) | > 100 µM (inactive) | > 100 µM (inactive) | > 100 µM (inactive) | > 100 µM (inactive) | > 100 µM (inactive) | > 100 µM (inactive) | > 100 µM (inactive) | > 100 µM (inactive) | > 100 µM (inactive) | > 100 µM (inactive) | > 100 µM (inactive) | > 100 µM (inactive) |
| Cc1cc(S(=O)(=O)Nc2nnc3c(C(F)(F)F)cc(Cl)cn23)c(S)cc1Cl | > 100 µM (inactive) | > 100 µM (inactive) | – | 90.8 µM (inactive) | > 100 µM (inactive) | > 100 µM | 33 µM (inactive) | > 100 µM (inactive) | > 100 µM (inactive) | > 100 µM (inactive) | 74 µM (inactive) | 67.1 µM (inactive) | 48.2 µM (inactive) | 41.5 µM (inactive) | > 100 µM (inactive) | > 100 µM (inactive) | 76 µM (inactive) | > 100 µM (inactive) | > 100 µM (inactive) | > 100 µM (inactive) |
| COC[C@@H](/N=C/C(C)(C)C)C(C)C | > 100 µM (inactive) | > 100 µM (inactive) | – | > 100 µM (inactive) | > 100 µM (inactive) | > 100 µM | > 100 µM (inactive) | > 100 µM (inactive) | > 100 µM (inactive) | > 100 µM (inactive) | > 100 µM (inactive) | > 100 µM (inactive) | > 100 µM (inactive) | > 100 µM (inactive) | > 100 µM (inactive) | > 100 µM (inactive) | > 100 µM (inactive) | > 100 µM (inactive) | > 100 µM (inactive) | > 100 µM (inactive) |
| O=[N+]([O-])c1cccc(C2=NN(c3ccccc3)C3c4ccccc4OCC23)c1 (configuration not stated) | 62.1 µM (inactive) | > 100 µM (inactive) | > 100 µM (inactive) | > 100 µM (inactive) | > 100 µM (inactive) | – | 6.71 µM (inactive) | > 100 µM (inactive) | > 100 µM (inactive) | > 100 µM (inactive) | > 100 µM (inactive) | – | > 100 µM (inactive) | – | – | – | – | – | – | – |
| N=C(N)N/N=C/c1c(-c2cccc([N+](=O)[O-])c2)nc2n1CCS2 | 16.3 µM (inactive) | 19.6 µM (inactive) | – | 9.68 µM (inactive) | 16.6 µM (inactive) | 33.1 µM | 15.5 µM (inactive) | 20 µM (inactive) | 16.7 µM (inactive) | 19.8 µM (inactive) | 11.4 µM (inactive) | 24.4 µM (inactive) | 17.7 µM (inactive) | 17.9 µM (inactive) | 22.7 µM (inactive) | 19 µM (inactive) | 28.2 µM (inactive) | 20.3 µM (inactive) | 7.1 µM (inactive) | 16.9 µM (inactive) |
| CCN(CC)CCOCCOCC1(c2ccc(Cl)c(Cl)c2)CCCCC1 | 7.91 µM (inactive) | 11.8 µM (inactive) | – | 7.64 µM (inactive) | 7.08 µM (inactive) | 4.34 µM | 5.12 µM (inactive) | 11.2 µM (inactive) | 13.8 µM (inactive) | 5.22 µM (inactive) | 4.99 µM (inactive) | 1.7 µM (inactive) | 15.2 µM (inactive) | 8.87 µM (inactive) | 11.9 µM (inactive) | 8.71 µM (inactive) | 4 µM (inactive) | 17.9 µM (inactive) | 2.96 µM (inactive) | 11.2 µM (inactive) |
| S=C1SC(c2ccc(Cl)cc2)(c2ccc(Cl)cc2)c2ccccc21 | 91.8 µM (inactive) | 95.1 µM (inactive) | – | > 100 µM (inactive) | 25.7 µM (inactive) | 65 µM | > 100 µM (inactive) | > 100 µM (inactive) | > 100 µM (inactive) | 67.8 µM (inactive) | 37.2 µM (inactive) | 79.4 µM (inactive) | > 100 µM (inactive) | > 100 µM (inactive) | > 100 µM (inactive) | 55.1 µM (inactive) | 62.7 µM (inactive) | 51.2 µM (inactive) | > 100 µM (inactive) | 58.6 µM (inactive) |
| N#CC12CC3=C(N=C1NC1=C(CCc4ccccc41)C2)c1ccccc1CC3 (configuration not stated) | 1.23 µM (inactive) | 3.3 µM (inactive) | – | 1.64 µM (inactive) | 1.42 µM (inactive) | 1.76 µM | 3.45 µM (inactive) | 2.53 µM (inactive) | 3.24 µM (inactive) | 4.06 µM (inactive) | 1.72 µM (inactive) | 2.76 µM (inactive) | 6.59 µM (inactive) | 2.82 µM (inactive) | 5.15 µM (inactive) | 3.97 µM (inactive) | 0.278 µM (active) | 3.73 µM (inactive) | 4.83 µM (inactive) | 2.12 µM (inactive) |
| C/C(=C\CO)CC/C=C(\C)CNc1ccccc1 | 23.2 µM (inactive) | 73.1 µM (inactive) | – | 0.0498 µM (active) | 57.7 µM (inactive) | 67.8 µM | 38.1 µM (inactive) | 82.6 µM (inactive) | 82.8 µM (inactive) | 51.1 µM (inactive) | 13 µM (inactive) | 62.7 µM (inactive) | > 100 µM (inactive) | 36.1 µM (inactive) | 57.5 µM (inactive) | 37.8 µM (inactive) | 36.1 µM (inactive) | 36.9 µM (inactive) | 29.8 µM (inactive) | 28.8 µM (inactive) |
